According to patent US10738041B2, “Ferroportin inhibitors” (Vifor (International) AG, priority 2015, dated 2020):
Like-named read-outs stand apart in the source and are kept apart here.

Target: T1, ferroportin (Fpn) (Mus musculus, UniProt Q9JHI9)
T1 construct: host or cells: J774 mouse macrophage cell line, Fe(III)-NTA induced
T1 sequence (Q9JHI9 1-570): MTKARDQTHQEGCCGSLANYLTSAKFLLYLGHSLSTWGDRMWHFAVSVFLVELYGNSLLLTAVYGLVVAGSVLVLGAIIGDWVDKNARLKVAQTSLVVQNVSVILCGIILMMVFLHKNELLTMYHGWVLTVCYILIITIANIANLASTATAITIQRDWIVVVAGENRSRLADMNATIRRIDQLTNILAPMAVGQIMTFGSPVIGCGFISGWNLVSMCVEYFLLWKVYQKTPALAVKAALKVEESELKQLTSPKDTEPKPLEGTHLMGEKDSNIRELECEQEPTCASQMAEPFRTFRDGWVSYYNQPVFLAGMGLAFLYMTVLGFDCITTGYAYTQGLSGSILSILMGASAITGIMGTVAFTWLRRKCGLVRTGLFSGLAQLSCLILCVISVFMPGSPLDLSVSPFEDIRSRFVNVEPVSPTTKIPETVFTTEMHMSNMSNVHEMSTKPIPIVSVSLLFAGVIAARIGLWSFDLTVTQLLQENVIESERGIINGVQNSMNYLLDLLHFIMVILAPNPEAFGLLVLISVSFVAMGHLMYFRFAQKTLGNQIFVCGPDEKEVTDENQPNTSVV
Assay: Hepcidin Internalization Assay (J774)
Assay type: cell-based
Method in brief: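 Inhibition of fluorescent TMR-hepcidin uptake via ferroportin was imaged in fixed J774 cells after a 2 h, 37 °C co-incubation with compound dilutions; cells were pre-cultured overnight with 200 μM Fe(III)NTA. Internalized TMR signal per cell (Sum(Mean)) was fitted as log(inhibitor) vs. response for IC50, in triplicate.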

[1] = average of multiple measurements, inhibition of TMR-hepcidin (25 nM) internalization into J774 cells, read-out: J774 IC50

Row | Structure (SMILES) | IC50 [1] | IC50 (IC50 of unlabeled hepcidin in the hepcidin internalization assay, J774 cells, TMR-hepcidin 25 nM)
1 | O=C(NCc1ncccc1Cl)c1cnn(CCNCc2nc3ccccc3[nH]2)c1 [Example 138] | 179 nM | –
2 | O=C(NCc1ncccc1F)c1nc(CCNCCc2nc3ccccc3[nH]2)sc1Cl [Example 154] | 8.3 nM | –
3 | O=C(NCc1ncccc1Cl)c1cnn(CCNCCc2nc3ccccc3[nH]2)c1 [Example 144] | 12 nM | –
4 | O=C(NCc1ncccc1F)c1coc(CCNCCc2nc3c(F)cccc3[nH]2)n1 [Example 228] | 46 nM | –
5 | O=C(NCc1cccnn1)c1csc(CCNCCc2nc3ccccc3[nH]2)n1 [Example 122] | 26 nM | –
6 | O=C(NCc1ncc(F)cc1F)c1csc(CCNCCc2nc3ccccc3[nH]2)n1 [Example 116] | 1000 nM | –
7 | O=C(NCc1ncccc1Cl)c1csc(CCNCc2nc3ccccc3[nH]2)n1 [Example 82] | 6 nM | –
8 | O=C(NCc1ncccc1F)c1coc(CCNCCc2nc3c(Cl)cccc3[nH]2)n1 [Example 226] | 49 nM | –
9 | O=C(NCc1ncccc1F)c1cncc(C2CN(CCc3nc4ccccc4[nH]3)C2)c1 [compound 237] | 81 nM | –
10 | O=C(NC1CCc2cccnc21)c1csc(CCNCc2nc3ccccc3[nH]2)n1 (stereo not drawn) [Example 39] | 70 nM | –
11 | O=C(NCc1ncccc1F)c1ncn(CCNCCc2nc3ccccc3[nH]2)n1 [Example 181] | 135 nM | –
12 | O=C(NCc1ncccc1F)c1nc(CCNCc2nc3ccccc3[nH]2)sc1Cl [Example 151] | 111 nM | –
13 | O=C(NCc1ccccn1)c1coc(CCNCc2nc3ccccc3[nH]2)n1 [Example 137] | 514 nM | –
14 | O=C(NCc1ncccc1F)c1csc(CNCCc2nc3ccccc3[nH]2)n1 [Example 118] | 103 nM | –
15 | O=C(NCc1ncccc1F)c1coc(C2CN(CCc3nc4c(F)cccc4[nH]3)C2)n1 [Example 239] | 36 nM | –
16 | O=C(NCc1ccccn1)c1csc(CCNCc2nc3ccccc3[nH]2)n1 [Example 12] | 80 nM | –
17 | CC[C@H](C)[C@@H]1NC(=O)[C@@H](NC(=O)[C@@H](NC(=O)[C@@H]2CCCN2C(=O)[C@H](Cc2ccccc2)NC(=O)[C@H](Cc2c[nH]cn2)NC(=O)[C@@H](NC(=O)[C@@H](N)CC(=O)O)[C@@H](C)O)[C@@H](C)CC)CSSC[C@@H](C(=O)N[C@@H](CCCCN)C(=O)N[C@H](C(=O)O)[C@@H](C)O)NC(=O)[C@@H]2CSSC[C@@H]3NC(=O)[C@@H]4CSSC[C@H](NC(=O)[C@H](Cc5ccccc5)NC1=O)C(=O)N[C@@H](CSSC[C@H](NC(=O)[C@H](CCCCN)NC(=O)[C@H](CO)NC(=O)[C@H](CCCNC(=N)N)NC(=O)[C@H](Cc1c[nH]cn1)NC3=O)C(=O)NCC(=O)N[C@@H](CCSC)C(=O)N2)C(=O)NCC(=O)N4 [hepcidin, reference compound] | – | 15 ± 11 nM
18 | O=C(NCc1ncccc1F)c1csc(CCCNCc2nc3ccccc3[nH]2)n1 [Example 134] | 377 nM | –

Row | Structure (SMILES) | IC50 [1] | IC50 (IC50 of unlabeled hepcidin in the hepcidin internalization assay, J774 cells, TMR-hepcidin 25 nM)
19 | O=C(NCc1ncccc1F)c1csc(CCNCCc2nc3c(F)cccc3[nH]2)n1 [Example 243] | 32 nM | –
20 | O=C(NCc1ncccc1F)c1coc(C2CN(CCc3nc4ccccc4[nH]3)C2)n1 [Example 208] | 12 nM | –
21 | O=C(NCc1ncccc1F)c1coc(CCNCCc2nc3c(F)cc(F)cc3[nH]2)n1 [Example 249] | 40 nM | –
22 | Cc1cnccc1CNC(=O)c1csc(CCNCc2nc3ccccc3[nH]2)n1 [Example 90] | 25 nM | –
23 | O=C(NCc1ncccc1F)c1ncn(CCNCc2nc3ccccc3[nH]2)n1 [Example 169] | 750 nM | –
24 | O=C(NCc1ncccc1F)c1cccc(CNCCc2nc3ccccc3[nH]2)c1 [Example 224] | 140 nM | –
25 | O=C(NCc1ncccc1Cl)c1coc(CCNCc2nc3ccccc3[nH]2)n1 [Example 141] | 167 nM | –
26 | O=C(NCc1ncccc1F)c1csc(CCNCC(F)(F)c2nc3ccccc3[nH]2)n1 [Example 196] | 1130 nM | –
27 | O=C(NCc1ncccc1F)c1coc(CCNCCc2nc3ccccc3[nH]2)n1 [Example 127] | 9 nM | –
28 | O=C(NCc1ncccc1F)c1csc(CCN(CCc2nc3ccccc3[nH]2)CCc2nc3ccccc3[nH]2)n1 [Example 152] | 4 nM | –
29 | O=C(NCc1ncccc1F)c1coc(CCNCc2nc3ccccc3[nH]2)n1 [Example 126] | 96 nM | –
30 | O=C(NCc1ncccc1F)c1coc(CCNCCc2nc3cc(F)ccc3[nH]2)n1 [Example 250] | 14 nM | –
31 | O=C(NCc1cccnn1)c1nc(CCNCc2nc3ccccc3[nH]2)sc1Cl [Example 161] | 361 nM | –
32 | Cc1oc(CCNCCc2nc3ccccc3[nH]2)nc1C(=O)NCc1ncccc1F [Example 230] | 140 nM | –
33 | O=C(NCc1ncccc1F)c1csc(CCNCCc2nc3cc(F)ccc3[nH]2)n1 [Example 120] | 34 nM | –
34 | O=C(NC1CCc2cccnc21)c1csc(CCNCCc2nc3ccccc3[nH]2)n1 (stereo not drawn) [Example 158] | 47 nM | –
35 | O=C(NCc1ncccc1F)c1csc(CCNCCc2nc3ccccc3[nH]2)n1 [Example 94] | 12 nM | –
36 | O=C(NCc1ncccc1F)c1cnn(CCNCCc2nc3ccccc3[nH]2)c1 [Example 111] | 35 nM | –
